The values below come from ChEMBL document CHEMBL3832085.

For orientation: AUC means the area under the concentration-time curve, a measure of exposure. Higher therefore signals more exposure. In general, Cmax refers to the peak of the concentration-time curve. As usually defined, the Tmax is the time from dosing to the highest level.

A short description of this series: clinical. The following applies: human, in vivo, topical or ocular, 46.1 mg.

Where the note is “AUC(0 to inf)”, `CCN(CC)CC(=O)Nc1c(C)cccc1C` [LIDOCAINE] gave an AUC of 61.3 ng·h/mL. The compound further returned a Cmax (Cmax) of 27.2 ng/mL. For the same compound, the Tmax (Tmax) is 45 min.
